Data: patent US5085995A, “Method for producing saffron stigma-like tissue and method for producing useful components from saffron stigma-like tissue” (Somar Corporation, priority 1989, dated 1992)

Assays:
saffron ovary [1] = test: Tissue culture of saffron ovary in MS medium with alanine; visual rating of stigma-like tissue (Example 3); format: cell-based; settings: BA 10 ppm, 7 weeks, scale 0-10
Source text: (§1) The relative amount of the stigma-like tissue was visually determined and rated according to an 11-part divided scale, taking an amount corresponding to the amount of naturally-occurring three stigmata containing saffron pigment as 10, nil as 0, and equally dividing the interval therebetween.
(§2) The relative color density of the stigma-like tissue was visually determined, and rated according to an 11-part divided scale, taking a density corresponding to the density of a naturally-occurring stigma containing saffron pigment as 10 and colorlessness as 0, and equally dividing the interval therebetween.
(§3) Guaran powder was then added to the medium in a concentration of 0.2% by weight. The medium was sterilized at 120° C. for 20 minutes in an autoclave. The sterilized medium was aloquated into sterile plastic plates having a diameter of 55 mm, followed by cooling to solidify.
(§4) A bud of a saffron flower before opening was harvested, sterilized by soaking in a 0.5 vol% sodium hypochlorite aqueous solution for 10 minutes, and washed with water. The ovary portion of the bud was taken out and cut to pieces of about 8 mm. Each cut piece was seeded on each of the above-prepared solid media.
(§5) The ovary was subjected to static culture at 25° C. in a dark room. Production of a stigma-like tissue was recognized in the cultures in about 4 weeks at the soonest. In 7 weeks, the stigma-like tissue grew and assumed a red color, indicating considerable production of the saffron pigment.
(§6) After 7 weeks of culturing, the tissue cultures were visually observed and evaluated in the same manner as in Example 1.

saffron ovary [2] = test: Tissue culture of saffron ovary in Linsmaier-Skoog medium with alanine; visual rating of stigma-like tissue (Example 4); format: cell-based; settings: Ki 2 ppm, scale 0-10
Source text: as §1, §2, §3, §4, §5, §6
(§7) A saffron ovary was cultured in the same manner as in Example 3, except for replacing the MS medium with a Linsmaier-Skoog medium to which Ki, NAA and alanine were added in the concentrations shown in Table 11.

[3] = test system: corolla tube of a saffron; test: Tissue culture of saffron corolla tube with alanine; visual rating of stigma-like tissue (Example 5); format: cell-based; settings: Ki 2 ppm, Linsmaier-Skoog medium, scale 0-10
Source text: as §1, §2, §3, §4, §6, §7
The procedure of Example 4 was repeated except for replacing the ovary with a corolla tube of a saffron.

style of saffron = test: Tissue culture of saffron style with alanine; visual rating of stigma-like tissue (Example 6); format: cell-based; settings: Ki 2 ppm, Linsmaier-Skoog medium, scale 0-10
Source text: as §1, §2, §3, §4, §6, §7
The procedure of Example 4 was repeated except for replacing the overy with a style of saffron.

[4] = test system: female organ and/or corolla tube of saffron; test: Tissue culture of female organ and/or corolla tube of saffron in the presence of alanine; format: cell-based; settings: compared with cultures in the absence of alanine
Source text: In this embodiment, a female organ and/or a corolla tube of a saffron flower is tissue-cultured in a medium containing a plant hormone and alanine in a bright or dark room.
Female organs and/or corolla tubes to be cultured are harvested from saffron flowers before opening, i.e., flowers in the bud and subjected to tissue culture in the manner as in the first embodiment by using a medium containing alanine to produce and proliferate the stigma-like tissue. When using female organs and/or corolla tubes harvested after flower opening, the amount of the stigma-like tissue produced tends to be reduced.
In cases where female organs and/or corolla tubes are cultured in the second embodiment, the culture medium should further contain alanine to accelerate the production of the stigma-like tissue. Alanine is preferably added to a medium in concentrations of from about 0.005 to 10g/l, more preferably from 0.1 to 10g/l. The alanine to be added may be any of D- or L-optical isomers and a racemate.
Tissue culture according to the present invention can be performed either by static culture using a solid medium or by shake culture using a liquid medium. The solid medium includes a medium containing about 0.8% by weight of agar and a Murashige-Skoog medium containing 0.2% by weight of guaran. The culturing may be in either a bright room or a dark room. […]

[5] = test system: undifferentiated callus of saffron bulb; settings: undifferentiated callus culture of saffron bulb; symposium 1987; cited from earlier work

Structure (SMILES): C[C@H](N)C(=O)O (racemic) [Alanine, alanine]
- Relative Color Density of Stigma-Like Tissue Containing Saffron Pigment (saffron ovary [1]; alanine 0.005 g/l, NAA 0.1 ppm): 8
- Relative Production of Stigma-Like Tissue Containing Saffron Pigment (saffron ovary [1]; alanine 0.005 g/l, NAA 0.1 ppm): 4
- Relative Color Density of Stigma-Like Tissue Containing Saffron Pigment (saffron ovary [1]; alanine 0.005 g/l, NAA 1.0 ppm): 8
- Relative Production of Stigma-Like Tissue Containing Saffron Pigment (saffron ovary [1]; alanine 0.005 g/l, NAA 1.0 ppm): 4
- Relative Color Density of Stigma-Like Tissue Containing Saffron Pigment (saffron ovary [1]; alanine 0.01 g/l, NAA 0.1 ppm): 8
- Relative Production of Stigma-Like Tissue Containing Saffron Pigment (saffron ovary [1]; alanine 0.01 g/l, NAA 0.1 ppm): 5
- Relative Color Density of Stigma-Like Tissue Containing Saffron Pigment (saffron ovary [1]; alanine 0.01 g/l, NAA 1.0 ppm): 8
- Relative Production of Stigma-Like Tissue Containing Saffron Pigment (saffron ovary [1]; alanine 0.01 g/l, NAA 1.0 ppm): 5
- Relative Color Density of Stigma-Like Tissue Containing Saffron Pigment (saffron ovary [1]; alanine 0.1 g/l, NAA 0.1 ppm): 9
- Relative Production of Stigma-Like Tissue Containing Saffron Pigment (saffron ovary [1]; alanine 0.1 g/l, NAA 0.1 ppm): 5
- Relative Color Density of Stigma-Like Tissue Containing Saffron Pigment (saffron ovary [1]; alanine 0.1 g/l, NAA 1.0 ppm): 9
- Relative Production of Stigma-Like Tissue Containing Saffron Pigment (saffron ovary [1]; alanine 0.1 g/l, NAA 1.0 ppm): 6
- Relative Color Density of Stigma-Like Tissue Containing Saffron Pigment (saffron ovary [1]; alanine 1.0 g/l, NAA 0.1 ppm): 9
- Relative Production of Stigma-Like Tissue Containing Saffron Pigment (saffron ovary [1]; alanine 1.0 g/l, NAA 0.1 ppm): 7
- Relative Color Density of Stigma-Like Tissue Containing Saffron Pigment (saffron ovary [1]; alanine 1.0 g/l, NAA 1.0 ppm): 9
- Relative Production of Stigma-Like Tissue Containing Saffron Pigment (saffron ovary [1]; alanine 1.0 g/l, NAA 1.0 ppm): 8
- Relative Color Density of Stigma-Like Tissue Containing Saffron Pigment (saffron ovary [1]; alanine 5.0 g/l, NAA 0.1 ppm): 9
- Relative Production of Stigma-Like Tissue Containing Saffron Pigment (saffron ovary [1]; alanine 5.0 g/l, NAA 0.1 ppm): 6
- Relative Color Density of Stigma-Like Tissue Containing Saffron Pigment (saffron ovary [1]; alanine 5.0 g/l, NAA 1.0 ppm): 8
- Relative Production of Stigma-Like Tissue Containing Saffron Pigment (saffron ovary [1]; alanine 5.0 g/l, NAA 1.0 ppm): 6
- Relative Color Density of Stigma-Like Tissue Containing Saffron Pigment (saffron ovary [1]; alanine 10.0 g/l, NAA 0.1 ppm): 8
- Relative Production of Stigma-Like Tissue Containing Saffron Pigment (saffron ovary [1]; alanine 10.0 g/l, NAA 0.1 ppm): 5
- Relative Color Density of Stigma-Like Tissue Containing Saffron Pigment (saffron ovary [1]; alanine 10.0 g/l, NAA 1.0 ppm): 8
- Relative Production of Stigma-Like Tissue Containing Saffron Pigment (saffron ovary [1]; alanine 10.0 g/l, NAA 1.0 ppm): 5
- Relative Color Density of Stigma-Like Tissue Containing Saffron Pigment (saffron ovary [1]; alanine 20.0 g/l, NAA 0.1 ppm): 8
- Relative Production of Stigma-Like Tissue Containing Saffron Pigment (saffron ovary [1]; alanine 20.0 g/l, NAA 0.1 ppm): 3
- Relative Color Density of Stigma-Like Tissue Containing Saffron Pigment (saffron ovary [1]; alanine 20.0 g/l, NAA 1.0 ppm): 7
- Relative Production of Stigma-Like Tissue Containing Saffron Pigment (saffron ovary [1]; alanine 20.0 g/l, NAA 1.0 ppm): 4
- Relative Color Density of Stigma-Like Tissue Containing Saffron Pigment (saffron ovary [2]; alanine 0.01 g/l, NAA 0.1 ppm): 5
- Relative Production of Stigma-Like Tissue Containing Saffron Pigment (saffron ovary [2]; alanine 0.01 g/l, NAA 0.1 ppm): 3
- Relative Color Density of Stigma-Like Tissue Containing Saffron Pigment (saffron ovary [2]; alanine 0.01 g/l, NAA 1.0 ppm): 6
- Relative Production of Stigma-Like Tissue Containing Saffron Pigment (saffron ovary [2]; alanine 0.01 g/l, NAA 1.0 ppm): 3
- Relative Color Density of Stigma-Like Tissue Containing Saffron Pigment (saffron ovary [2]; alanine 0.1 g/l, NAA 0.1 ppm): 6
- Relative Production of Stigma-Like Tissue Containing Saffron Pigment (saffron ovary [2]; alanine 0.1 g/l, NAA 0.1 ppm): 4
- Relative Color Density of Stigma-Like Tissue Containing Saffron Pigment (saffron ovary [2]; alanine 0.1 g/l, NAA 1.0 ppm): 6
- Relative Production of Stigma-Like Tissue Containing Saffron Pigment (saffron ovary [2]; alanine 0.1 g/l, NAA 1.0 ppm): 4
- Relative Color Density of Stigma-Like Tissue Containing Saffron Pigment (saffron ovary [2]; alanine 1.0 g/l, NAA 0.1 ppm): 7
- Relative Production of Stigma-Like Tissue Containing Saffron Pigment (saffron ovary [2]; alanine 1.0 g/l, NAA 0.1 ppm): 5
- Relative Color Density of Stigma-Like Tissue Containing Saffron Pigment (saffron ovary [2]; alanine 1.0 g/l, NAA 1.0 ppm): 7
- Relative Production of Stigma-Like Tissue Containing Saffron Pigment (saffron ovary [2]; alanine 1.0 g/l, NAA 1.0 ppm): 5
- Relative Color Density of Stigma-Like Tissue Containing Saffron Pigment (saffron ovary [2]; alanine 5.0 g/l, NAA 0.1 ppm): 6
- Relative Production of Stigma-Like Tissue Containing Saffron Pigment (saffron ovary [2]; alanine 5.0 g/l, NAA 0.1 ppm): 5
- Relative Color Density of Stigma-Like Tissue Containing Saffron Pigment (saffron ovary [2]; alanine 5.0 g/l, NAA 1.0 ppm): 7
- Relative Production of Stigma-Like Tissue Containing Saffron Pigment (saffron ovary [2]; alanine 5.0 g/l, NAA 1.0 ppm): 5
- Relative Color Density of Stigma-Like Tissue Containing Saffron Pigment ([3]; alanine 0.01 g/l, NAA 0.1 ppm): 6
- Relative Production of Stigma-Like Tissue Containing Saffron Pigment ([3]; alanine 0.01 g/l, NAA 0.1 ppm): 4
- Relative Color Density of Stigma-Like Tissue Containing Saffron Pigment ([3]; alanine 0.01 g/l, NAA 1.0 ppm): 6
- Relative Production of Stigma-Like Tissue Containing Saffron Pigment ([3]; alanine 0.01 g/l, NAA 1.0 ppm): 4
- Relative Color Density of Stigma-Like Tissue Containing Saffron Pigment ([3]; alanine 0.1 g/l, NAA 0.1 ppm): 7
- Relative Production of Stigma-Like Tissue Containing Saffron Pigment ([3]; alanine 0.1 g/l, NAA 0.1 ppm): 5
- Relative Color Density of Stigma-Like Tissue Containing Saffron Pigment ([3]; alanine 0.1 g/l, NAA 1.0 ppm): 7
- Relative Production of Stigma-Like Tissue Containing Saffron Pigment ([3]; alanine 0.1 g/l, NAA 1.0 ppm): 5
- Relative Color Density of Stigma-Like Tissue Containing Saffron Pigment ([3]; alanine 1.0 g/l, NAA 0.1 ppm): 7
- Relative Production of Stigma-Like Tissue Containing Saffron Pigment ([3]; alanine 1.0 g/l, NAA 0.1 ppm): 6
- Relative Color Density of Stigma-Like Tissue Containing Saffron Pigment ([3]; alanine 1.0 g/l, NAA 1.0 ppm): 7
- Relative Production of Stigma-Like Tissue Containing Saffron Pigment ([3]; alanine 1.0 g/l, NAA 1.0 ppm): 6
- Relative Color Density of Stigma-Like Tissue Containing Saffron Pigment ([3]; alanine 5.0 g/l, NAA 0.1 ppm): 7
- Relative Production of Stigma-Like Tissue Containing Saffron Pigment ([3]; alanine 5.0 g/l, NAA 0.1 ppm): 6
- Relative Color Density of Stigma-Like Tissue Containing Saffron Pigment ([3]; alanine 5.0 g/l, NAA 1.0 ppm): 7
- Relative Production of Stigma-Like Tissue Containing Saffron Pigment ([3]; alanine 5.0 g/l, NAA 1.0 ppm): 6
- Relative Density of Stigma-Like Tissue Containing Saffron Pigment (style of saffron; alanine 0.1 g/l, NAA 0.1 ppm): 6
- Relative Production of Stigma-Like Tissue Containing Saffron Pigment (style of saffron; alanine 0.1 g/l, NAA 0.1 ppm): 4
- Relative Density of Stigma-Like Tissue Containing Saffron Pigment (style of saffron; alanine 0.1 g/l, NAA 1.0 ppm): 7
- Relative Production of Stigma-Like Tissue Containing Saffron Pigment (style of saffron; alanine 0.1 g/l, NAA 1.0 ppm): 5
- Relative Density of Stigma-Like Tissue Containing Saffron Pigment (style of saffron; alanine 1.0 g/l, NAA 0.1 ppm): 7
- Relative Production of Stigma-Like Tissue Containing Saffron Pigment (style of saffron; alanine 1.0 g/l, NAA 0.1 ppm): 5
- Relative Density of Stigma-Like Tissue Containing Saffron Pigment (style of saffron; alanine 1.0 g/l, NAA 1.0 ppm): 7
- Relative Production of Stigma-Like Tissue Containing Saffron Pigment (style of saffron; alanine 1.0 g/l, NAA 1.0 ppm): 6
- Relative Density of Stigma-Like Tissue Containing Saffron Pigment (style of saffron; alanine 5.0 g/l, NAA 0.1 ppm): 7
- Relative Production of Stigma-Like Tissue Containing Saffron Pigment (style of saffron; alanine 5.0 g/l, NAA 0.1 ppm): 5
- Relative Density of Stigma-Like Tissue Containing Saffron Pigment (style of saffron; alanine 5.0 g/l, NAA 1.0 ppm): 8
- Relative Production of Stigma-Like Tissue Containing Saffron Pigment (style of saffron; alanine 5.0 g/l, NAA 1.0 ppm): 6
- quantities of stigma-like tissue and the pigment [4]: larger quantities of stigma-like tissue and the pigment
- effect of addition of alanine to the medium [5]: discharge of a red substance into the medium
